Legend:
[1] = biological target: T1, 5-hydroxytryptamine receptor 2A (Homo sapiens, UniProt P28223); assay: Binding affinity to 5HT2A receptor (unknown origin) at 10 uM relative to control
[2] = biological target: T2, 5-hydroxytryptamine receptor 2C (Homo sapiens, UniProt P28335); assay: Binding affinity to 5HT2C receptor (unknown origin) assessed as inhibition constant
T2 sequence (P28335 whole entry): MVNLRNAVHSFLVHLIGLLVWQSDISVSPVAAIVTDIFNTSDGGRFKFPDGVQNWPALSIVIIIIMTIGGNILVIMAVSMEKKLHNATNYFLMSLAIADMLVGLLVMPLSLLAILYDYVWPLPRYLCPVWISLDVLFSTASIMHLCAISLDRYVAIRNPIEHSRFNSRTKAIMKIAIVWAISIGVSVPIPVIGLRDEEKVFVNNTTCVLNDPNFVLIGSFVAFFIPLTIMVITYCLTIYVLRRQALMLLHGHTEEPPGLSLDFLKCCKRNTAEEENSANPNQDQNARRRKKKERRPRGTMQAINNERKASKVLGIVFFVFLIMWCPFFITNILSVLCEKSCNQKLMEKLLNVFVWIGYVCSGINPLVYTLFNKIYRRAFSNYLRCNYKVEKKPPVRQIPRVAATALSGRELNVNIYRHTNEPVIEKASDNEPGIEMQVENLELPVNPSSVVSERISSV

[3] = biological target: T3, 5-hydroxytryptamine receptor 2B (Homo sapiens, UniProt P41595); assay: Binding affinity to 5HT2B receptor (unknown origin) assessed as inhibition constant
[4] = biological target: T4, Adenosine receptor A1 (Homo sapiens) (UniProt P30542); assay: Binding affinity to A1AR (unknown origin) at 10 uM relative to control; details: filed as agonist
T4 sequence (whole entry): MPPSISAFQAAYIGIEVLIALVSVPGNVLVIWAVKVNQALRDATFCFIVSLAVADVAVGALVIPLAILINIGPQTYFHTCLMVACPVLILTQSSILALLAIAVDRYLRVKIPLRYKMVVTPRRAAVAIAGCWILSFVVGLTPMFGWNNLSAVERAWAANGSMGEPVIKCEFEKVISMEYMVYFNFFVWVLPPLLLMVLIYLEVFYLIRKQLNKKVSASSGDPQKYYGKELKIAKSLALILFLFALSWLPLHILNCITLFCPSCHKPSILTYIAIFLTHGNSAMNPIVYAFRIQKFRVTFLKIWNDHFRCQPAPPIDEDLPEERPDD

[5] = biological target: T3, 5-hydroxytryptamine receptor 2B; assay: Displacement of [3H]-LSD from human 5-HT2B receptor expressed in HEK cells assessed as inhibition constant incubated for 1 hr; assay type: cell-based
[6] = biological target: T5, Alpha-2B adrenergic receptor (Homo sapiens, UniProt P18089); assay: Binding affinity to alpha2B receptor (unknown origin) assessed as inhibition constant
T5 sequence (P18089 whole entry): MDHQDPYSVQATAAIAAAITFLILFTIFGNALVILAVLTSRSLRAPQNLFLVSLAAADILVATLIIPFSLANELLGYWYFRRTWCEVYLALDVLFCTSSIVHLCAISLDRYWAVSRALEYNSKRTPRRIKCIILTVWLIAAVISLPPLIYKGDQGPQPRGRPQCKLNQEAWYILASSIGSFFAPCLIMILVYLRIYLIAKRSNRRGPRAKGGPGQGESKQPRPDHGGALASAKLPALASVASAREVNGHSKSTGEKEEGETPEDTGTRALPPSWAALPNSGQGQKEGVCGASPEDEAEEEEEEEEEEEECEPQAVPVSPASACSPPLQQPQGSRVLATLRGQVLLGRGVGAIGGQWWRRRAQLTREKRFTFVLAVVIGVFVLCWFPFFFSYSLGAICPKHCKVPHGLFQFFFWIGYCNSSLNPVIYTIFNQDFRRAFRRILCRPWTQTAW

[7] = biological target: T1, 5-hydroxytryptamine receptor 2A; assay: Displacement of [3H]ketanserin from human 5-HT2A receptor expressed in HEK293 cells at 10 uM incubated for 1 hr; assay type: cell-based
Adenosine receptor A3 = biological target: T6, Adenosine receptor A3 (Homo sapiens, UniProt P0DMS8); assay: Displacement of […] from human A3AR expressed in HEK cells assessed as inhibition constant; assay type: cell-based
T6 sequence (P0DMS8 whole entry): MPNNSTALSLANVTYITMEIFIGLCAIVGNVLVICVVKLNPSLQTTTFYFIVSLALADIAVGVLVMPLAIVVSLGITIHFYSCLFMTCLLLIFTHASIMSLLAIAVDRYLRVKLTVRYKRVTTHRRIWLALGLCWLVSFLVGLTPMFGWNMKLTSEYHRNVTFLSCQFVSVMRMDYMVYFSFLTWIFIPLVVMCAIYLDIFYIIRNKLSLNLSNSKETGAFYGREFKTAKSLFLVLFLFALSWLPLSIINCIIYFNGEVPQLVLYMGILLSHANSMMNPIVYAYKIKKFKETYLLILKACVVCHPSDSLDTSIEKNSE

[8] = biological target: T7, 5-hydroxytryptamine receptor 2C (Homo sapiens) (UniProt P28335); assay: Displacement of [3H]-Mesulergine from human 5-HT2C expressed in Flp-In-T-REx-293 cells at 10 uM incubated for 1 hr relative to control; assay type: cell-based; details: filed as antagonist
T7 sequence (whole entry): T2 sequence (P28335 whole entry)

[9] = biological target: Adenosine receptor A2a (Homo sapiens) (UniProt P29274); assay: Displacement of […] from human A2AR expressed in HEK cells at 10 uM relative to control; assay type: cell-based
[10] = biological target: T7, 5-hydroxytryptamine receptor 2C (Homo sapiens); assay: Binding affinity to 5HT2C receptor (unknown origin) at 10 uM relative to control; details: filed as antagonist
[11] = biological target: T3, 5-hydroxytryptamine receptor 2B; assay: Displacement of [3H]-LSD from human 5-HT2B receptor expressed in HEK cells at 10 uM incubated for 1 hr relative to control; assay type: cell-based
[12] = biological target: T4, Adenosine receptor A1 (Homo sapiens); assay: Displacement of […] from human A1AR expressed in Flp-In-T-REx-293 cells at 1 uM relative to control; assay type: cell-based; details: filed as agonist
[13] = biological target: T8, Adenosine receptor A3 (Homo sapiens) (UniProt P0DMS8); assay: Displacement of […] from human A3AR expressed in HEK cells at 10 uM relative to control; assay type: cell-based
T8 sequence (whole entry): T6 sequence (P0DMS8 whole entry)

[14] = biological target: T1, 5-hydroxytryptamine receptor 2A; assay: Displacement of [3H]ketanserin from human 5-HT2A receptor expressed in HEK293 cells at 10 uM incubated for 1 hr relative to control; assay type: cell-based
Adenosine receptor A1 = biological target: T9, Adenosine receptor A1 (Homo sapiens, UniProt P30542); assay: Displacement of […] from human A1AR expressed in Flp-In-T-REx-293 cells assessed as inhibition constant; assay type: cell-based
T9 sequence (P30542 whole entry): T4 sequence (whole entry)

[15] = biological target: T2, 5-hydroxytryptamine receptor 2C; assay: Displacement of [3H]-Mesulergine from human 5-HT2C expressed in Flp-In-T-REx-293 cells assessed as inhibition constant incubated for 1 hr; assay type: cell-based
[16] = biological target: T1, 5-hydroxytryptamine receptor 2A; details: Flp-In-T-REx-293, time 1.0 hrs
[17] = biological target: T7, 5-hydroxytryptamine receptor 2C (Homo sapiens); details: Flp-In-T-REx-293, filed as antagonist, time 1.0 hrs
[18] = biological target: Sodium-dependent dopamine transporter (Homo sapiens, UniProt Q01959); assay: Binding affinity to DAT (unknown origin) assessed as inhibition constant
[19] = biological target: 5-hydroxytryptamine receptor 1D (Homo sapiens, UniProt P28221); assay: Binding affinity to 5HT1D receptor (unknown origin) assessed as inhibition constant
[20] = biological target: T10, Alpha-2C adrenergic receptor (Homo sapiens, UniProt P18825); assay: Binding affinity to alpha2C receptor (unknown origin) assessed as inhibition constant
T10 sequence (P18825 whole entry): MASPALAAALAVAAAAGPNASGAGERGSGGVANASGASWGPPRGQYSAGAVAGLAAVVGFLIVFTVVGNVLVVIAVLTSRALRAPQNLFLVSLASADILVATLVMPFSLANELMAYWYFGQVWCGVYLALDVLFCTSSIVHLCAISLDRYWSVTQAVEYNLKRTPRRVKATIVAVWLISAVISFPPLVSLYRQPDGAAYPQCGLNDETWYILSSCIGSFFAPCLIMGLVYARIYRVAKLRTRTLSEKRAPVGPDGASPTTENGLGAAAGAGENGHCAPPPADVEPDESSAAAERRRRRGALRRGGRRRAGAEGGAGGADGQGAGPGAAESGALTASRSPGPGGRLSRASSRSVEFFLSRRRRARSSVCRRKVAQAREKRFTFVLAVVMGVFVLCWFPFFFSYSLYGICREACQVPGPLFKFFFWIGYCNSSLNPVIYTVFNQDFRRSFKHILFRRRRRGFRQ

Mu-type opioid receptor = Mu-type opioid receptor (Homo sapiens, UniProt P35372); assay: Binding affinity to MOR (unknown origin) assessed as inhibition constant
Mu-type opioid receptor, sequence (P35372 whole entry): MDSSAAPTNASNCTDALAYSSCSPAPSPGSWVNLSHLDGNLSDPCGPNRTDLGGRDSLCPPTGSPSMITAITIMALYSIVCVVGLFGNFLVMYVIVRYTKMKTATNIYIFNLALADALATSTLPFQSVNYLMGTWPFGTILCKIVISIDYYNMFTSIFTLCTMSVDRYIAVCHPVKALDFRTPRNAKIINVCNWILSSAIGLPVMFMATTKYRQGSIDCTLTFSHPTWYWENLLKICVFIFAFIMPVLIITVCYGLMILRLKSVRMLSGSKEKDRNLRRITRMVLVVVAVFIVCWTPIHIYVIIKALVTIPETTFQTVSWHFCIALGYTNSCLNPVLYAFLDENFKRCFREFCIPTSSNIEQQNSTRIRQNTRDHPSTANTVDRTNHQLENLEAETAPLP

T3 sequence (P41595 whole entry): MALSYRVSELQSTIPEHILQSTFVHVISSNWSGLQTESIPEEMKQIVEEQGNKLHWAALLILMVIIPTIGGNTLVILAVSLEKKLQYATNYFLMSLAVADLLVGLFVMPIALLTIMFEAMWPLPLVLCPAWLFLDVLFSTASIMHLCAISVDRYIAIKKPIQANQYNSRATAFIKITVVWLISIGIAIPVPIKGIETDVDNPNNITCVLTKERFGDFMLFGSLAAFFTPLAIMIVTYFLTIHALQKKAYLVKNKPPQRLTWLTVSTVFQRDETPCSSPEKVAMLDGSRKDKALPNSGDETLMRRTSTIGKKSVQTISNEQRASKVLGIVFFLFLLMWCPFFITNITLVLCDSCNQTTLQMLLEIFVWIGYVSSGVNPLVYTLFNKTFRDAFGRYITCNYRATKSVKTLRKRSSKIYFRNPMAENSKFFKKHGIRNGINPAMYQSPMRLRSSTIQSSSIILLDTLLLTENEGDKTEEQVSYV
Adenosine receptor A2a (Homo sapiens), sequence (P29274 whole entry): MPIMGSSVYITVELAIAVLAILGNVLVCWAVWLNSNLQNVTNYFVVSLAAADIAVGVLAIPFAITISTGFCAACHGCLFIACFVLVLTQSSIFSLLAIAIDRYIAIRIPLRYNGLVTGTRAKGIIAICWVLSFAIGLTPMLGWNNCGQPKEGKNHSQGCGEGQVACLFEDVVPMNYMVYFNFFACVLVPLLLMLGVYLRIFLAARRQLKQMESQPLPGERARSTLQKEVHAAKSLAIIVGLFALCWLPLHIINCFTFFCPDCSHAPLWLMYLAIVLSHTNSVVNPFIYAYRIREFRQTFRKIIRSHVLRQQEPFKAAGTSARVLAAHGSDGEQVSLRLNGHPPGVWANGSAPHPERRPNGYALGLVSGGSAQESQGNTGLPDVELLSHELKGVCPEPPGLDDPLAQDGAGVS
T1 sequence (P28223 whole entry): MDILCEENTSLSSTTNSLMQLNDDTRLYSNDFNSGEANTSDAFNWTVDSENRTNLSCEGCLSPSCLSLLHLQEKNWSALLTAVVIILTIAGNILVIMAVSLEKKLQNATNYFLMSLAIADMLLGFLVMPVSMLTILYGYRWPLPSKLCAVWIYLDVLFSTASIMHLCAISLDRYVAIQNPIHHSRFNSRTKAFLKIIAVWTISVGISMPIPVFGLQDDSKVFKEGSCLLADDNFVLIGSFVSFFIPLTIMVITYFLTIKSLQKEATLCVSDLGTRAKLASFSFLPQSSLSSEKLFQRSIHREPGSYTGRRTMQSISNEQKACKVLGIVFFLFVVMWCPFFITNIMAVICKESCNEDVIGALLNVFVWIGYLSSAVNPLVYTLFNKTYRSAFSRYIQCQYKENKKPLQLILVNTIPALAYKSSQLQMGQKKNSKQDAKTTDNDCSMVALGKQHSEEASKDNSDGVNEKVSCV
Sodium-dependent dopamine transporter, sequence (Q01959 whole entry): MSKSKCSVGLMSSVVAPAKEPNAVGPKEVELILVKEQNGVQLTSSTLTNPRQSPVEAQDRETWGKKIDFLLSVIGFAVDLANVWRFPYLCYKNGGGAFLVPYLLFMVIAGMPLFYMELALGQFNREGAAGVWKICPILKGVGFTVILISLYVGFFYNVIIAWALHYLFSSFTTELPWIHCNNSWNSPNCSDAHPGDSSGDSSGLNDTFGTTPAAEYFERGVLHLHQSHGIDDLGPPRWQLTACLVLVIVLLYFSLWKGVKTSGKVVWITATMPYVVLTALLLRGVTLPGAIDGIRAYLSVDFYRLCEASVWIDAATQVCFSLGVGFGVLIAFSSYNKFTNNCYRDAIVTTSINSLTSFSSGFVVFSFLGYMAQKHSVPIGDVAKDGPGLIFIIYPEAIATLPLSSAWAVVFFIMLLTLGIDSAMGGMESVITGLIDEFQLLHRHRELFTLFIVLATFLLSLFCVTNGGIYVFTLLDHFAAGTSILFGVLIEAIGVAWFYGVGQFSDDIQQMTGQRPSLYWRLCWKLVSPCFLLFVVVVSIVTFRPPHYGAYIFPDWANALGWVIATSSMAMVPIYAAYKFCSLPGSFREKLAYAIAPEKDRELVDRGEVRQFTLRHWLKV
5-hydroxytryptamine receptor 1D, sequence (P28221 whole entry): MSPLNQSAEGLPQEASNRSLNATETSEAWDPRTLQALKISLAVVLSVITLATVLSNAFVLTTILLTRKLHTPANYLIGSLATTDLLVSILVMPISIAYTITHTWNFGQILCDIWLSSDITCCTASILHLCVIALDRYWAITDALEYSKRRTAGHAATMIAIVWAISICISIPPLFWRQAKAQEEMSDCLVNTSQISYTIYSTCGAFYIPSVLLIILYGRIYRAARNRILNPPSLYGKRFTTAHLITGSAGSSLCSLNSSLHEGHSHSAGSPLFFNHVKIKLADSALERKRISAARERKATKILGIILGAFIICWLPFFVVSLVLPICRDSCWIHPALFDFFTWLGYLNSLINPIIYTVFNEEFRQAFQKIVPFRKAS

## O[C@H]1[C@H](n2cnc3c(NC(C4CCC4)C4CCC4)ncnc32)[C@H]2C[C@@]2(CCl)[C@H]1O
[1]
  Activity: 11%
[2]
  Ki: 1230 nM
[3]
  Ki: 1090 nM

## O[C@H]1[C@H](n2cnc3c(NC(C4CCC4)C4CCC4)nc(Cl)nc32)[C@H]2C[C@@]2(CSc2ccccc2F)[C@H]1O
[1]
  Activity: 21%
[4]
  Activity: 45%
[2]
  Ki: 1250 nM
[3]
  Ki: 601 nM

## OC[C@@]12C[C@@H]1[C@@H](n1cnc3c(NC(C4CCC4)C4CCC4)nc(Cl)nc31)[C@H](O)[C@@H]2O
[1]
  Activity: 8%
[2]
  Ki: 368 nM

## CSC[C@@]12C[C@@H]1[C@@H](n1cnc3c(NC(C4CCCC4)C4CCCC4)nc(SC)nc31)[C@H](O)[C@@H]2O
[5]
  Ki: 222 nM
[6]
  Ki: 1200 nM
[7]
  Ki: 9300 nM
Adenosine receptor A3
  Ki: 6620 nM
[8]
  Activity: 49%
[9]
  Activity: -60%

## CNC(=O)[C@]12C[C@@H]1[C@@H](n1cnc3c(NC4CCCC4)nc(Cl)nc31)[C@H](O)[C@@H]2O
[10]
  Activity: 44%
[1]
  Activity: 0%
[3]
  Ki: 78.2 nM

## Clc1nc(NCC2CC2)c2nc[nH]c2n1
[11]
  Activity: 29%
[12]
  Activity: 49%

## CCOC(=O)[C@@]12C[C@@H]1[C@@H](n1cnc3c(NC(C4CCC4)C4CCC4)nc(Cl)nc31)[C@H](O)[C@@H]2O
[1]
  Activity: 35%
[2]
  Ki: 351 nM
[3]
  Ki: 136 nM

## OC[C@@]12C[C@@H]1[C@@H](n1cnc3c(N[C@H](C4CCC4)C4CC4)nc(I)nc31)[C@H](O)[C@@H]2O
[13]
  Activity: 34%
[14]
  Activity: 29%
Adenosine receptor A1
  Ki: 42.7 nM
[9]; filed as agonist
  Activity: 50%
[15]; read-out: Ki
  Ki: 670 nM
[15]; read-out: pKi (converted)
  Ki: 603 nM
[16]
  pKb: < 5
[17]
  pKb: 6.54

## OC[C@@]12C[C@@H]1[C@@H](n1cnc3c(NC(C4CCCC4)C4CCCC4)nc(Cl)nc31)[C@H](O)[C@@H]2O
[18]
  Ki: 3900 nM
[14]
  Activity: 1%
[9]
  Activity: -12%

## O[C@H]1[C@H](n2cnc3c(NC(C4CCCC4)C4CCCC4)nc(Cl)nc32)[C@H]2C[C@@]2(CCl)[C@H]1O
[7]
  Ki: 6470 nM
Adenosine receptor A3
  Ki: 8260 nM
[19]
  Ki: 6500 nM
Adenosine receptor A1
  Ki: 529 nM
[9]
  Activity: 36%
[20]
  Ki: 2500 nM
Mu-type opioid receptor
  Ki: 5700 nM
